Where two headings read alike, the source gives them in different places.
Key:
[1] = test system: C. albicans biofilm formation; experiment: Crystal violet biofilm formation assay, C. albicans; type: cell-based, Candida albicans; conditions: for inhibition of C. albicans biofilm formation: concentrations from 12.5 to 100 µM
Protocol: (§1) The inhibition reducing biofilm formation and growth was assessed using the crystal violet biofilm assay as described. Overnight cultures of bacteria S. aureus and E. coli and yeast-like fungi C. albicans were inoculated into Mueller–Hinton broth at a concentration of 10^9 CFU/mL. A total of 90µL of this cell suspension was then dispensed into 96-well microtiter plates containing 10 µL of different concentrations of compounds 1–6. After 24 h growth at 37 °C, the plates were washed with PBS to remove unbound cells. Next, the wells were stained with 0.1% crystal violet solution for 10 min at 37 °C. At the completion of the incubation, plates were washed 3 times with PBS and dried. Then, the crystal violet dye from the biofilm was solubilized with 100 µL of ethanol. A total of 100 µL of this solution was then moved to a new microtiter plate for absorbance measurement at λ = 570 nm. The results were reported as percent inhibition normalized to the wild-type control.

Candida albicans KMM 455 = experiment: Antimicrobial activity: C. albicans growth (OD620, 96-well broth); type: cell-based; conditions: for inhibition at 12.5 µM: KMM455, 12.5 µM
Protocol: (§2) The yeast-like fungi of Candida albicans KMM 455 and bacterial strains Staphylococcus aureus ATCC 21027 and Escherichia coli VKPM (B-7935) (Collection of Marine Microorganisms PIBOC FEB RAS) were cultured on solid medium Mueller Hinton broth with agar (16.0 g/L) in a Petri dish at 37 °C for 24 h.
(§3) The assays were performed in 96-well microplates in appropriate Mueller Hinton broth. Each well contained 90 µL of bacterial or of yeast-like fungi suspension (10^9 CFU/mL). Then, 10 µL of a compound diluted at concentrations from 1.5 µM to 100.0 µM using two-fold dilution were added (DMSO concentration <1%). Culture plates were incubated for 18 h at 37 °C, and the OD620 was measured using a Multiskan FS spectrophotometer (Thermo Scientific Inc., Beverly, MA, USA). The antibiotic gentamicin and the antifungal agent nitrofungin were used as positive controls at 1 mg/mL; 1% DMSO in PBS served as a negative control.

sortase A from S. aureus = biological target: T1, sortase A from S. aureus (Staphylococcus aureus, UniProt Q2FV99); experiment: Sortase A activity inhibition assay (SensoLyte 520 kit, cell-free); type: biochemical; conditions: for inhibition at 50 µM: read-out: inhibition of sortase A activity, 50 µM, after 10 min of incubation; for inhibition of sortase A activity: 50 µM, after 10 min of incubation
T1 construct: purchased AnaSpec AS-72229
Protocol: The enzymatic activity of sortase A from S. aureus was determined using SensoLyte 520 Sortase A Activity Assay Kit Fluorimetric (AnaSpec AS-72229, AnaSpec, San Jose, CA, USA) in accordance with the manufacturer’s instructions. […] DMSO at a concentration of 0.8% was used as a control. 4-(Hydroxymercuri)benzoic acid (PCMB) was used as sortase A enzyme activity inhibitor. Fluorescence was measured with a plate reader PHERAStar FS (BMG Labtech, Offenburg, Germany) for 60 min, with a time interval of 5 min. The data were processed with MARS Data Analysis v. 3.01R2 (BMG Labtech, Offenburg, Germany). The results were presented as relative fluorescent units (RFUs) and percentage of the control data, calculated using STATISTICA 10.0 software.

[2] = test system: Escherichia coli VKPM (B-7935); experiment: Antimicrobial activity: E. coli growth (OD620, 96-well broth); type: cell-based
Protocol: as §2, §3

[3] = test system: Staphylococcus aureus ATCC 21027; experiment: Antimicrobial activity: S. aureus growth (OD620, 96-well broth); type: cell-based; conditions: for inhibition at 12.5 µM / inhibition at 100 µM: Staphylococcus aureus; for inhibition at 12.5 µM: ATCC21027, 12.5 µM; for inhibition at 100 µM: ATCC21027, 100 µM
Protocol: as §2, §3

H9c2 cardiomyocytes = experiment: H9c2 cell viability (MTT) assay; type: cell-based, rat; conditions: for toxicity toward normal cardiomyocytes: at the concentrations in which they affected the growth of microorganisms; for Cell Viability: 24 h, MTT
Protocol: (§4) The rat cardiomyocytes H9c2 cells were kindly provided by Prof. Dr. Gunhild von Amsberg from Martini-Klinik Prostate Cancer Center, University Hospital Hamburg-Eppendorf, Hamburg, Germany.
(§5) The H9c2 cells were cultured in DMEM medium (Biolot, St. Petersburg, Russia) containing 10% fetal bovine serum (Biolot, St. Petersburg, Russia) and 1% penicillin/streptomycin (Biolot, St. Petersburg, Russia) at 37 °C in a humidified atmosphere with 5% (v/v) CO2.
(§6) The H9c2 cells were seeded at concentrations of 3 × 10^3 cell/well, and the experiments were started after 24 h. The compounds at concentrations up to 100 µM were added into the wells for 24 h, and the viability of the cells was measured with an MTT (3-(4,5-dimethylthiazol-2-yl)-2,5-diphenyltetrazolium bromide) assay, which was performed according to the manufacturer’s instructions (Sigma-Aldrich, Munich, Germany). All compounds were dissolved with DMSO so that the final concentration of DMSO in the cell culture was not more than 1%. Moreover, DMSO was used as a control. The results were presented as a percent of the control data and calculated IC50.

[4] = H9c2 cell viability (MTT) assay; type: cell-based, rat; conditions: rat, H9c2 cardiomyocytes, 24 h, MTT
Protocol: as §4, §5, §6

[5] = test system: S. aureus biofilm formation; experiment: Crystal violet biofilm formation assay, S. aureus; type: cell-based, Staphylococcus aureus; conditions: for prevention of the biofilm formation of S. aureus: concentration not given; for IC50: Staphylococcus aureus, read-out: half-maximal concentration (IC50) of the biofilm formation inhibition
Protocol: as §1

[6] = test system: E. coli biofilm formation; experiment: Crystal violet biofilm formation assay, E. coli; type: cell-based, Escherichia coli
Protocol: as §1

Escherichia coli [7] = test system: Escherichia coli; parameters: method as in PMID 31226283; conditions: bacterial suspension 10^6 CFU per milliliter; cited from earlier work
Staphylococcus aureus [8] = experiment: Literature antibacterial activity against Staphylococcus aureus; type: cell-based; conditions: calculated from 100 μg/mL
Staphylococcus aureus [9] = test system: Staphylococcus aureus; parameters: method as in PMID 31226283; conditions: bacterial suspension 10^6 CFU per milliliter; cited from earlier work
[10] = in vivo assay; cited from earlier work
Escherichia coli [11] = experiment: Literature antibacterial activity against Escherichia coli; type: cell-based; conditions: calculated from 50 μg/mL
[12] = concentrations from 12.5 to 100 µM

T1 sequence (Q2FV99 whole entry): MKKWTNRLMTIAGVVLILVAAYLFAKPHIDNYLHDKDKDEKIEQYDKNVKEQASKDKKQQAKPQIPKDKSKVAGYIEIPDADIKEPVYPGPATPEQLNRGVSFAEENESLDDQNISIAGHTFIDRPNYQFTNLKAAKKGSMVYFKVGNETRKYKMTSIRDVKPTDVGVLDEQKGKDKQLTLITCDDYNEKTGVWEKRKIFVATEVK

| SMILES | inhibition of C. albicans biofilm formation [1] | inhibition of C. albicans growth (Candida albicans KMM 455; [12]) | inhibition at 50 µM (sortase A from S. aureus) | inhibition at 12.5 µM ([2]; Escherichia coli, 12.5 µM) | inhibition at 100 µM ([2]; Escherichia coli, 100 µM) | inhibition at 12.5 µM [3] | inhibition at 100 µM [3] | viability at 24 h, 1 µM [4] | viability at 24 h, 10 µM [4] | viability at 24 h, 100 µM [4] | prevention of S. aureus biofilm formation ([5]; 100 µM) | inhibition of S. aureus growth ([3]; 12.5 µM) | other results |
| --- | --- | --- | --- | --- | --- | --- | --- | --- | --- | --- | --- | --- | --- |
| C[C@H]1CCC[C@H](CC(=O)O)O1 [Compound 6, 2-((2R,6S)-6-methyltetrahydro-2H-pyran-2-yl)acetic acid] | 14.7–23.1% | 34.7-52.1% | 16.8% | 27.7% | 56.9% | 25.6% | 46.5% | 98.1 ± 1.6% | 80.9 ± 2.9% | 54.6 ± 2.1% |  |  | effect on biofilm formation by C. albicans (in words) [1]: affected the biofilm formation; IC50 (Candida albicans KMM 455; Candida albicans, KMM455): 89.9 µM; IC50 ([2]; Escherichia coli, read-out: IC50 of E. coli growth inhibition): 84.9 µM; toxicity toward normal cardiomyocytes (H9c2 cardiomyocytes): significant toxicity; prevention of the biofilm formation of S. aureus [5]: 30–40% |
| CC1C=CC(=O)C2(C)CCC3C4C(C)(CC(=O)C4(C)C)CC132 (stereo not shown) [Compound 4, leptosphin C] | 30.6–36.4% | 38.7–44.8% | 20% | 7.2% | 41.7% | 10.3% | 42.4% | 107 ± 2.9% | 102 ± 4.6% | 92.3 ± 1.9% | 54.5% |  | effect on biofilm formation of E. coli (in words) [6]: affect the biofilm formation; prevention of E. coli biofilm formation ([6]; concentrations of 25–100 µM): 30–40%; effect on biofilm formation by C. albicans (in words) [1]: affected the biofilm formation; concentration of antibacterial activity against Escherichia coli (Escherichia coli [7]): > 100 µg/mL; concentration at which activity was recorded (S. aureus) (Staphylococcus aureus [8]): 333 µM; concentration of antibacterial activity against Staphylococcus aureus (Staphylococcus aureus [9]): 100 µg/mL; IC50 ([5]; S. aureus biofilm): 85.5 µM |
| CC1C=CC(=O)C2(C)CCC3C4C(C)(CC(O)C4(C)C)CC132 (stereo not drawn) [Compound 2, 13-epi-conidiogenone F] |  |  |  |  | 27.3% |  | 19.1% | 98.1 ± 1.9% | 107 ± 7.8% |  | 52.6% | no effect | inhibition at 12.5 µM (Candida albicans KMM 455; Candida albicans): 27.9%; inhibition of sortase A activity (sortase A from S. aureus): 36.9%; inhibition of E. coli growth ([2]; 12.5 µM): not observed; decrease of H9c2 viability (H9c2 cardiomyocytes; 100 µM): ~30%; Cell Viability (H9c2 cardiomyocytes; 100 µM): 67.3 ± 3.1%; prevention of S. aureus biofilm formation ([5]; 12.5 µM): 37.9%; IC50 [5]: 76.1 µM |
| C[C@H]1CCC[C@H](C[C@H]2Cc3cc(O)cc(O)c3C(=O)O2)O1 [Compound 7, cladosporin] |  |  |  |  |  |  |  |  |  |  |  |  | clearance rate in the body [10]: high; oral bioavailability [10]: poor |
| CC12CC(=O)C(C)(C)C1C1CCC3(C)C(=O)C=CC(C)(O)C13C2 (stereo not shown) [Compound 1, 4-hydroxyleptosphin C] |  |  | 28.2% |  | 35.9% | 15.3% | 29.3% | 94.8 ± 5.9% | 65.7 ± 9.4% | 63.2 ± 0.5% | 34.5% |  | inhibition at 12.5 µM (Candida albicans KMM 455; Candida albicans): 30.4%; inhibition of E. coli growth ([2]; 12.5 µM): not observed; decrease in H9c2 cell viability (H9c2 cardiomyocytes; 10 µM): ~30%; decrease of H9c2 viability (H9c2 cardiomyocytes; 100 µM): ~30%; prevention of S. aureus biofilm formation ([5]; 12.5 µM): 15.9% |
| C[C@H]1CCC[C@H](C[C@@H](O)CC(=O)O)O1 [Compound 5, antaketide A] | did not affect | 36.2–48.4% | 25.5% | 12.5% | 40.9% |  | 48.5% | 94.4 ± 3.1% | 88.5 ± 3.1% | 74.1 ± 4.9% |  | did not show any influence | effect on biofilm formation of E. coli (in words) [6]: affect the biofilm formation; prevention of E. coli biofilm formation ([6]; concentrations of 12.5–100 µM, respectively): 21–45%; toxicity toward normal cardiomyocytes (H9c2 cardiomyocytes): significant toxicity; prevention of the biofilm formation of S. aureus [5]: 30–40% |
| CC1C=CC(=O)C2(C)CCC3C4C(C)(CC(O)C4(C)C)CC132 (stereo not shown) [Compound 3, conidiogenone F] |  |  |  | 24.3% |  |  |  |  |  |  |  | did not influence | inhibition of C. albicans growth (Candida albicans KMM 455; 12.5 µM): 26.5%; inhibition of sortase A activity (sortase A from S. aureus): 13.1%; concentration of antibacterial activity against Escherichia coli (Escherichia coli [7]): 50 µg/mL; inhibition of E. coli growth ([2]; 100 µM): 36.4%; inhibition of S. aureus growth ([3]; 100 µM): 17.6%; concentration of antibacterial activity against Staphylococcus aureus (Staphylococcus aureus [9]): > 100 µg/mL; concentration at which activity was recorded (E. coli) (Escherichia coli [11]): 166 µM; Cell Viability (H9c2 cardiomyocytes; 1 µM): 103.3 ± 3.2%; Cell Viability (H9c2 cardiomyocytes; 10 µM): 92.9 ± 2.5%; Cell Viability (H9c2 cardiomyocytes; 100 µM): 109.7 ± 9.2%; prevention of S. aureus biofilm formation ([5]; only at concentrations of 50 µM and 100 µM): 10–15% |

From PMC10672241, “New Cyclopiane Diterpenes and Polyketide Derivatives from Marine Sediment-Derived Fungus Penicillium antarcticum KMM 4670 and Their Biological Activities” (Marine Drugs, 2023)
